# “And” between values parts separate entries of the source, which are not always exact repeats. Equal entries are not always repeated.
# Target: T1, LRRK2 (Homo sapiens, UniProt Q5S007)
# T1 construct: A BacMam virus expressing full length recombinant LRRK2 was purchased from Invitrogen; host or cells: SH-SY5Y human neuroblastoma cells transduced with BacMam LRRK2 virus
# Experiment: Recombinant cellular LRRK2 AlphaScreen assay (LRRK2 Ser935 phosphorylation in SH-SY5Y cells over-expressing recombinant full length LRRK2)
# Type: cell-based
# Settings: 60 minutes compound incubation, read-out: pIC50 in the recombinant cellular LRRK2 AlphaScreen assay (converted)
# Description: 2) Recombinant Cellular LRRK2 AlphaScreen Assay
# To determine the activity of compounds against LRRK2 kinase activity in cells, the observed LRRK2 kinase-dependent modulation of LRRK2 Ser 935 phosphorylation (Dzamko et al., 2010, Biochem. J. 430: 405-413) was utilized to develop a quantitative 384 well plate-based immunoassay of LRRK2 Ser935 phosphorylation in the human neuroblastoma cell line SH-SY5Y, engineered to over-express recombinant full length LRRK2 protein.
# A BacMam virus expressing full length recombinant LRRK2 was purchased from Invitrogen and amplified by inoculation of SF-9 cells at MOI 0.3 for 4-5 days in Sf-900 III SFM medium supplemented with 3% fetal bovine serum. Infected cell cultures were then centrifuged at 2000 g for 20 minutes, viral supernatant titer determined by anti-gp64 plaque assay and stored at 4° C.
# Affinity-purified anti-phospho LRRK2 Ser935 sheep polyclonal antibody (Dzamko et al., 2010, Biochem. J. 430: 405-413) was biotinylated by standard methods (PerkinElmer). Anti-LRRK2 rabbit polyclonal antibody was purchased from Novus Biologicals. AlphaScreen Protein A IgG Kit (including acceptor and donor beads) was purchased from Perkin Elmer. […]
# Serial dilutions of test compounds were prepared in Opti-MEM reduced serum media (Invitrogen) and 5.6 ul transferred from compound plate to cell assay plate to achieve a top final assay concentration of 10 uM. […] 10 ul of antibody/acceptor bead mix [(1/1000 biotinylated-pS935 LRRK2 antibody, 1/1000 total-LRRK2 antibody, 1/100 Acceptor beads in AlphaScreen detection buffer (25 mM Hepes (pH 7.4), 0.5% Triton X-100, 1 mg/ml Dextran 500 and 0.1% BSA)] was then added to each well and plates incubated for 2 hours at ambient temperature in the dark. 10 μl of donor beads solution (1/33.3 donor beads in AlphaScreen detection buffer) was then added to each well. Following incubation for a further 2 hours at ambient temperature in the dark, plates were read on an EnVision™ plate reader at emission 520-620 nm with excitation 680 nm. […]
# T1 sequence (Q5S007 whole entry): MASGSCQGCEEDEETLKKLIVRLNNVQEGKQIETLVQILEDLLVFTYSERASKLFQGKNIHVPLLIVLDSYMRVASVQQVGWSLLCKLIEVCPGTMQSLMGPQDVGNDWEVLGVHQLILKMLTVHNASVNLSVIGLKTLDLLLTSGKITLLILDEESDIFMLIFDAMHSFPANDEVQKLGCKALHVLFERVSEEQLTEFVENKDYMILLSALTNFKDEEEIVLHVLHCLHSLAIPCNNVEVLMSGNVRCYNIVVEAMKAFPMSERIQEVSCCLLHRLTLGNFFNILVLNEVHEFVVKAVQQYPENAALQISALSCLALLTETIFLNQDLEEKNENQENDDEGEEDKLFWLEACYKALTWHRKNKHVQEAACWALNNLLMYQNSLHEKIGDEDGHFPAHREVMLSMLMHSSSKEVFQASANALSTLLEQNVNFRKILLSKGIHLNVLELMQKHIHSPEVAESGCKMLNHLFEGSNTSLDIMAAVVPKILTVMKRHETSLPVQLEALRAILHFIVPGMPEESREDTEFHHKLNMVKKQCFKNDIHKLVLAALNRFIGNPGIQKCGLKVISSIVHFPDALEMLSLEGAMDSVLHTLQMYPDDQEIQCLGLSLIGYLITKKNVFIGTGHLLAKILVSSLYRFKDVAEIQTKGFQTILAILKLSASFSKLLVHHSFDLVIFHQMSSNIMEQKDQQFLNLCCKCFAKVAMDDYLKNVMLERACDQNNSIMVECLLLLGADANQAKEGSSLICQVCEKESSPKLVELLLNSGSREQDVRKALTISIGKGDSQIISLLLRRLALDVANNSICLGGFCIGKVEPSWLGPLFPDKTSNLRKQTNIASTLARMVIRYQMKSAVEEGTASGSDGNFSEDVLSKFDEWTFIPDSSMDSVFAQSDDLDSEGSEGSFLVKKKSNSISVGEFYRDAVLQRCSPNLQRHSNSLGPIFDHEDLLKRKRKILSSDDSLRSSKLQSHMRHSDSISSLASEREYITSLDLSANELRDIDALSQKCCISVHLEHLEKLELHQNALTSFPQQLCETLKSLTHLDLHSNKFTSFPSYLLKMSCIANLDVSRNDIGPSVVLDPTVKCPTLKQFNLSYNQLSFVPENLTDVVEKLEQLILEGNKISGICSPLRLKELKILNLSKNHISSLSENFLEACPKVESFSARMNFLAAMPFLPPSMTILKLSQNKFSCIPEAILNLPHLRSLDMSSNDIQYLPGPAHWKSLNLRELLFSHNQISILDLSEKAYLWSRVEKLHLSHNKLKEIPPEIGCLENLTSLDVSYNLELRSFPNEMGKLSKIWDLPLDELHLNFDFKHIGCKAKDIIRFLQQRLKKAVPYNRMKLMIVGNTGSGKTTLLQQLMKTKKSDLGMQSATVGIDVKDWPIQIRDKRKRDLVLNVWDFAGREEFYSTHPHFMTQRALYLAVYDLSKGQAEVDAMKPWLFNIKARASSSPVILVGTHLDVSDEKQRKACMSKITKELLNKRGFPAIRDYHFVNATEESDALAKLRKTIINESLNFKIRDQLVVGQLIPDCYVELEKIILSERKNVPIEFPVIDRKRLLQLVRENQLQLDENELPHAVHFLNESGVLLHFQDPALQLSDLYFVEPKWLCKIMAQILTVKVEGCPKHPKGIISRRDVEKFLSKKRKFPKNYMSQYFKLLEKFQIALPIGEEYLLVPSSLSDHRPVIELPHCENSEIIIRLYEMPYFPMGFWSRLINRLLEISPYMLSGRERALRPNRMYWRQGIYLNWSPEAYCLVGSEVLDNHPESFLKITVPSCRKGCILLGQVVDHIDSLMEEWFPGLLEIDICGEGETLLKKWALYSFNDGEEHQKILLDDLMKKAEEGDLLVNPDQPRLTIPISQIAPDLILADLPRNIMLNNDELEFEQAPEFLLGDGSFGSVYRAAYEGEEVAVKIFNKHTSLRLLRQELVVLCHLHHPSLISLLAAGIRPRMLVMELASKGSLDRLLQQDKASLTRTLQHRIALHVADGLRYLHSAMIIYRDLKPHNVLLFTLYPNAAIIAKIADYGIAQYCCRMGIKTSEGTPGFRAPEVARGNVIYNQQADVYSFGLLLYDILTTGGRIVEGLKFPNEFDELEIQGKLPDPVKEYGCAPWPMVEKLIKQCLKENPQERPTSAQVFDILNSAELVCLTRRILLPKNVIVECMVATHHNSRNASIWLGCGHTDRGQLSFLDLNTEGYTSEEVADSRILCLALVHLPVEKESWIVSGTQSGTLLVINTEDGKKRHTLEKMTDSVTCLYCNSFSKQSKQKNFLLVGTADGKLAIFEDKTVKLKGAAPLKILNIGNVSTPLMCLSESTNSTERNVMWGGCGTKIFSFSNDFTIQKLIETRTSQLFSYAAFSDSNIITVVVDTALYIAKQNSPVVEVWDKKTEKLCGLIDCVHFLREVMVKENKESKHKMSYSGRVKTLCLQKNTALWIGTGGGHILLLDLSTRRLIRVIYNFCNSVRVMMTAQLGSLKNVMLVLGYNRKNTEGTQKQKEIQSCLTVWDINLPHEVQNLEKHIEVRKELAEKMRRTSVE
row,IC50,Structure (SMILES)
1,≤ 100 nM,"COc1nc(N2CCN3CCC[C@@H]3C2)cc(-n2ncc3cc(C)c(C4CCN(C5COC5)CC4F)cc32)n1 (single isomer, unassigned) [Example A-1]"
2,≤ 100 nM,"COc1nc(N2CCN3CCC[C@H]3C2)cc(-n2ncc3cc(C)c(C4CCN(C5COC5)CC4F)cc32)n1 (single isomer, unassigned) [Example A-2]"
3,7.94 nM and ≤ 100 nM,"COc1nc(N2CCN3CCOCC3C2)cc(-n2ncc3cc(C)c(C4CCN(C5COC5)CC4)cc32)n1 (single isomer, unassigned) [Example A-13, 8-(2-methoxy-6-(5-methyl-6-(1-(oxetan-3-yl)piperidin-4-yl)-1H-indazol-1-yl)pyrimidin-4-yl)octahydropyrazino[2,1-c][1,4]oxazine]"
